One may read the IC50 as the concentration that inhibits the measured activity by half.

For assay [1], the target named is T1, AnCE (Drosophila melanogaster, UniProt Q10714).
T1 construct: recombinant single-domain enzyme, secreted from Pichia pastoris, purified
T1 sequence (Q10714 18-615): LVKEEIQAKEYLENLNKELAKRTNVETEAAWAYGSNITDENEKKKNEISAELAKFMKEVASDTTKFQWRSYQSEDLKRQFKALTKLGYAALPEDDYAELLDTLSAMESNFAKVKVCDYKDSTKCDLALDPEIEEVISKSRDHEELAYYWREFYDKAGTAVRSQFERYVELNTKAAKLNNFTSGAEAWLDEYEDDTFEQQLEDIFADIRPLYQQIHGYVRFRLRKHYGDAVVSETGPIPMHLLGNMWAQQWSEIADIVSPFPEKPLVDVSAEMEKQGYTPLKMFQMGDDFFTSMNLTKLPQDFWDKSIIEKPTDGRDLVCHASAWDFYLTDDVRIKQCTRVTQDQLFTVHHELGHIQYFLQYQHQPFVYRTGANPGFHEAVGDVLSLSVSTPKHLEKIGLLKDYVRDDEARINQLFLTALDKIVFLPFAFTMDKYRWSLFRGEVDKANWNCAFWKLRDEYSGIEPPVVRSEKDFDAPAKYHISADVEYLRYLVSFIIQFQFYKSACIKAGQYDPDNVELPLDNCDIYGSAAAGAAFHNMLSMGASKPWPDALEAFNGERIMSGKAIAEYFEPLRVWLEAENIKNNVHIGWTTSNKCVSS
The experiment in a line: inhibition of hippuryl-histidyl-leucine hydrolysis, Ki from IC50 (Cheng-Prusoff). Type of assay: biochemical. To be noted: read-out: apparent Ki.

Assay [2] deals with T1, AnCE. Nature of the assay: inhibition of hippuryl-histidyl-leucine hydrolysis. The assay is classed as biochemical.
The target in another assay is T2, C-ACE (Homo sapiens, UniProt P12821).
T2 construct: tACEΔ36-g13, truncated underglycosylated variant of testis ACE (C-domain), CHO cells, purified
The experiment in a line: X-ray crystal structure, […] Å. Particulars: co-crystal, pH 4.0 reservoir; active site, zinc coordination. The assay is classed as binding.

Structures are written as SMILES.

T2 sequence (P12821 642-1230): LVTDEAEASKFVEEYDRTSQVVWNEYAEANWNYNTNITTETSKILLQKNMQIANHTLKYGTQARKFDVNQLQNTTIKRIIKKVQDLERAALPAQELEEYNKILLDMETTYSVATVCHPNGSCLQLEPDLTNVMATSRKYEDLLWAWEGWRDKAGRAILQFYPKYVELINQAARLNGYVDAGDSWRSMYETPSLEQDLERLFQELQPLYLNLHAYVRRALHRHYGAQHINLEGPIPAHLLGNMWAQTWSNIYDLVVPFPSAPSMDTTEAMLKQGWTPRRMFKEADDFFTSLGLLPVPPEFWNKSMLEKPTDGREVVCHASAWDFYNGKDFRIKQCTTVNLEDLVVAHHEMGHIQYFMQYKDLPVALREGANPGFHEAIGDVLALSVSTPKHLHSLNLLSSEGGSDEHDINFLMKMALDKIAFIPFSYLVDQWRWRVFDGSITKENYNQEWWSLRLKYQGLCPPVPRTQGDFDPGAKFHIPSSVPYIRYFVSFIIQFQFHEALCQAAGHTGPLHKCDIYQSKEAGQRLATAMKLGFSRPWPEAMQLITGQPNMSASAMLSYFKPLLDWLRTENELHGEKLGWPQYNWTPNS

As to `O=C(N[C@@H](Cc1ccccc1)P(=O)(O)C[C@@H](Cc1cc(-c2ccccc2)no1)C(=O)N[C@@H](Cc1ccc(O)cc1)C(=O)O)OCc1ccccc1` [FI, (2S)‐2‐({3‐[hydroxyl (2‐phenyl‐(1R)‐1‐{[(benzyloxy)carbonyl]‐amino}ethyl)phosphinyl]‐2‐[(3‐phenylisoxazol‐5‐yl)methyl]‐1‐oxo‐propyl}amino)‐3‐(4‐hydroxy‐phenyl) propanoic acid], the Ki at AnCE [1] was 24 nM. The same molecule displayed an IC50 on AnCE [2] of 44 nM. Also, the “X-ray crystal structure, 1.85 Å” value at C-ACE is on record as “One bound inhibitor molecule was modelled in the catalytic site of C‐ACE”.
As for `O=C(N[C@@H](Cc1ccccc1)P(=O)(O)C[C@H](Cc1cc(-c2ccccc2)no1)C(=O)N[C@@H](Cc1ccc(O)cc1)C(=O)O)OCc1ccccc1` [FII, (2S)‐2‐({3‐[hydroxyl (2‐phenyl‐(1R)‐1‐{[(benzyloxy)carbonyl]‐amino}ethyl)phosphinyl]‐2‐[(3‐phenylisoxazol‐5‐yl)methyl]‐1‐oxo‐propyl}amino)‐3‐(4‐hydroxy‐phenyl) propanoic acid], the Ki on AnCE [1] was 120 nM. Further, the IC50 against AnCE [2] was 210 nM.

For the origin of these results see article PMC4154125, “Crystal structures of highly specific phosphinic tripeptide enantiomers in complex with the angiotensin‐I converting enzyme” (The Febs Journal, 2013).
